Here are results for two molecules from patent publication US20230097992A1, “BIVALENT EGF FUSION TOXINS” (The Regents of the University of Colorado, a body corporate, priority 2020, published 2023).

Assay [1] concerns HNSCC Cal27 tongue-orthotopic tumors. Briefly: Tongue-orthotopic tumor-bearing NSG mouse model. It counts as in vivo, NSG mice. The settings on record: for Median survival time: Tongue orthotopic model, fusion toxin or DT390 50 μg/kg IP, erlotinib 20 mg/kg gavage, once daily for 10 days from day 4; for tongue SCC tumor volume versus mono-EGF-IT and DT390 groups: second cohort, euthanized 8 days after tumor cell inoculation. The protocol: FIGS. 7A-7C presents the data from two animal studies of in vivo efficacy analysis of the human EGF fusion toxins against tongue squamous cell carcinomas (SCCs) in NSG mice. FIG. 7A presents the data from in vivo efficacy analysis of the human EGF fusion toxins using human EGFR-positive HNSCC Cal27 tongue-orthotopic tumor-bearing NSG mouse model. Eight million human EGFR-positive HNSCC Cal27 cells were injected into the tongue on day 0. Mice were injected intraperitoneally (IP) with the EGF fusion toxin or DT390 at 50 μg/kg, starting on day 4, once daily for 10 consecutive days. […] The schedule of the fusion toxin and tumor cell injection is pictured in the schematic below the survival curve. The vertical arrows indicate the days on which the tumor cells or the fusion toxins were injected. *P<0.05; **P<0.01; ***P<0.001; ****P<0.0001; ns: not significant.
FIG. 7B presents the data from a further in vivo efficacy analysis of the human EGF fusion toxins. […] The mice were euthanized on day 8 after tumor cell injection when the first mouse in the DT390 group reached the end point. The photograph depicts tongue squamous cell carcinomas (SCCs) (circled by the black dotted lines). Scale bar: 1 cm. FIG. 7C presents the FIG. 7B tumor volume comparison of the treatment groups. *P<0.05; **P<0.01
HNSCC tumor cells were injected via the following routes: 1) Flank-xenograft solid tumor model: eight million human HNSCC Cal27 tumor cells were subcutaneously injected into the right flank at day 0. The tumor-bearing mice were randomly divided into the four experimental groups when the tumors were palpable at day 3. The tumor volume was measured using digital vernier calipers every 3 days and calculated according to the formula: volume (mm^3)=(length×width×width)/2. 2) Tongue-orthotopic solid tumor model: eight million human HNSCC Cal27 tumor cells in 50 μl DMEM were injected into the tongue at day 0 following isoflurane anesthesia and the tumor-bearing mice were randomly divided into the planned four experimental groups at day 3. 3) Experimental metastasis model: one million human HNSCC Cal27 tumor cells in 200 μl DMEM were intravenously injected at day 0 via tail vein and the tumor-bearing mice were randomly divided into the four experimental groups at day 3.
Mono-EGF-IT (mEGF-IT), bEGF-IT, or DT390 was intraperitoneally injected (IP) starting at day 4 at 50 μg/kg, once daily for 10 consecutive days. […] The injected animals were observed daily for signs and symptoms of illness and scored at least twice weekly based on the parameters as previously reported (Peraino et al. (2013), J. Immunol. Methods 398-399, 33-43, which is hereby incorporated by reference in its entirety; Wang et al., 2015). The animals were humanely euthanized when the score exceeded the limit or the animal lost more than 15% of its pre-injection body weight. In addition, to assess whether the fusion toxins are toxic to the animals, NSG mice injected with the fusion toxins only were also included as control.
To assess the in vivo efficacy of the human EGF fusion toxins to the xenograft tumors in the head and neck area, a tongue-orthotopic tumor-bearing NSG mouse model was used as a second efficacy model. Eight million HNSCC Cal27 cells were injected into the tongue at day 0. The EGF fusion toxins were injected intraperitoneally (IP) starting on day 4 at 50 μg/kg daily for 10 consecutive days. Since the resulting tongue-orthotopic tumors severely affected the animal's eating and drinking, animals were euthanized earlier. Therefore, the median survival prolongation was not as impressive as that observed in the flank-xenograft solid tumor-bearing NSG mouse model. […] To further characterize the effect of the EGF fusion toxins on tumor volume, the orthotopic tongue SCC model study was repeated, and the mice were euthanized 8 days after tumor cell inoculation.

Assay [2] concerns human EGFR-positive HNSCC cell line TU167. Briefly: CellTiter-Glo Luminescent Cell Viability Assay, TU167. It counts as cell-based. Particulars: read-out: IC50 to HNSCC cell lines (Erlotinib). The method, then:
FIG. 9 presents the data from in vitro efficacy analysis of the human EGF fusion toxins against human EGFR-positive HNSCC cell lines using CellTiter-Glo® Luminescent Cell Viability Assay (Promega) Y-axis: inhibition rate of the cell viability by determining the number of viable cells based on the quantification of the ATP present. X-axis: plated fusion toxin concentration. Cycloheximide (1.25 mg/mL) was used as a positive control. The negative control contained cells without fusion toxin. Data were from three individual experiments for each HNSCC cell line. Error bars indicate SD.
Y-axis: inhibition rate of the cell viability by determining the number of viable cells based on the quantification of the ATP present. […] Cycloheximide (1.25 mg/mL) was used as a positive control. […]
In vitro efficacy analysis of the human EGF fusion toxins (mEGF-IT and bEGF-IT) to the human HNSCC tumor cell lines was performed using CellTiter-Glo® Luminescent Cell Viability Assay (Promega Corporation, Madison, Wis.) as described previously (Zheng et al. (2017), Mol. Oncol. 11, 584-594, which is hereby incorporated by reference in its entirety). This cell viability assay measures the luminescence produced because of ATP production from metabolically active cells. […] The luminescence signals were recorded using BioTek Synergy LX Multi-Mode Reader.
IC50 was determined using nonlinear regression (curve fit) of Prism. […]

Assay [3] concerns 14 human EGFR-positive HNSCC cell lines. Kind of assay: CellTiter-Glo in vitro efficacy, all examined HNSCC cell lines together. It counts as cell-based. On the technique in general: In ATP-based viability assays light output follows the ATP content of the culture.
Procedure: Cycloheximide (1.25 mg/mL) was used as a positive control. […] Data were from three individual experiments for each HNSCC cell line.
In vitro efficacy of the human EGF fusion toxins against HNSCC cell lines were assessed using CellTiter-Glo® Luminescent Cell Viability Assay.
Assay [4] has as its system 14 EGFR+ HNSCC cells lines. Briefly: Flow cytometry binding, all 14 EGFR+ HNSCC cell lines together. Also noted: species or system human. Particulars: mean over the 14 EGFR+ HNSCC cell lines.
For assay [5], the system named is EGFR+ HNSCC cell line, Cal27. Kind of assay: Blocking of anti-human EGFR mAb binding to Cal27 by nonbiotinylated fusion toxin (flow cytometry). Particulars: nonbiotinylated fusion toxin as competitor. From the text: FIGS. 3C-D present representative data from analysis of the blocking of anti-human EGFR mAb binding to human EGFR-expressing (EGFR^+) HNSCC Cal27 by mEGF-IT and bEGF-IT using flow cytometry. FIG. 3C presents representative flow cytometry data, and FIG. 3D presents the percentage inhibition of anti-human EGFR mAb binding to Cal27 cells plotted versus the concentration of binding competitor (mono-EGF-IT or bi-EGF-IT). The data are representative of three individual experiments.
The biotinylated EGF fusion toxins also dose-dependently bound to all other examined HNSCC cell lines (FIG. 3, 11, and Table 4). […] One limitation to the flow cytometry binding assay is that the extent of biotinylation should be similar between the constructs. Otherwise, it could be hard to attribute the differences in fluorescence intensities to a change in affinity. To overcome this limitation, a blocking assay using nonbiotinylated mono-EGF-IT or bi-EGF-IT to block the binding of the anti-human EGFR mAb to the EGFR+ HNSCC cell line, Cal27, was performed (Wang et al, 2007, Bioconjug Chem 18: 944-955). […] The 14 examined HNSCC cell lines represent the main HNSCC cell lines used in the research community of the head and neck cancers.
A general note: A flow cytometer gives signals particle by particle.

In the case of `C#Cc1cccc(Nc2ncnc3cc(OCCOC)c(OCCOC)cc23)c1` [Erlotinib], in assay [1], the Median survival time is 16.5 days; the “tongue SCC tumor volume versus mono-EGF-IT and DT390 groups” value is given as “significantly smaller”. Besides, in assay [2], the IC50 is 410 nM. Besides, in assay [3], the “in vitro efficacy against the examined HNSCC cell lines” value is reported as “effective in vitro against all 14 examined HNSCC tumor cell lines”.

In the case of “Bi-EGF IT: DT390 joined by G4S to two human EGF domains linked by (G4S)3, C-terminal 6×His tag; SEQ ID NO: 10”, in assay [1], the Median survival time turned out to be 15 days; the “tongue SCC tumor volume versus mono-EGF-IT and DT390 groups” value is listed as “significantly smaller”. The molecule further showed a Kd in assay [4] of 5.05 nM. The “blocking of anti-human EGFR mAb binding to Cal27 (result in words)” value in assay [5] is “bound significantly stronger to Cal27 cells compared with mono-EGF-IT”.

By IC50 is commonly meant the concentration that inhibits the measured activity by half. What is called Kd is the free concentration of one partner at which half of the binding sites on the other are occupied at equilibrium, for simple one-to-one binding. Low readings indicate higher affinity, high ones lower affinity.
